According to USRE30886E, “Method and composition for reducing blood glucose levels” (Nippon Shinyaku Company Ltd., priority 1975, dated 1982):

Experiments:
[1] = test system: healthy; test: Glucose level in the blood of healthy man after oral carbohydrate; format: in vivo, human; conditions: 1 to 1000 mg/kg orally, with 50 to 100 grams of glucose
[2] = test system: rats; test: Antidiabetic action model: glucose level in blood of rats given glucose orally; format: in vivo, Male Sprague Dawley rats; conditions: 1 to 1000 mg/kg, with glucose 0.5 to 4 g/kg orally
Procedure: Male Sprague Dawley rats of body weight of 150 to 200 grams are fasted overnight and glucose is then administered orally at the rate of 0.5 to 4 g/kg by using a stomach tube. Blood is drawn from the tail vein of each rat at suitable time intervals to determine glucose level in the blood. The glucose content in the blood increases rapidly to cause hyperglycemia.

[3] = test system: humans and other animals; test: Ability to inhibit or reduce the increase of glucose levels in humans and other animals; format: in vivo; conditions: upon administration of glucose or a glucose producing carbohydrate
[4] = test system: Sucrose-Administered Rats; test: Inhibitory action against increase of blood glucose for sucrose-administered rats; format: in vivo, Male Sprague Dawley rats; conditions: with 2 g/kg sucrose
Procedure: Male Sprague Dawley rats with body weight of 150 to 200 grams were fasted overnight, and 2 g/kg of sucrose was administered orally by using a stomach tube. The compound of this invention was simultaneously administered in a similar way at the rate of 1 to 100 mg/kg, and blood was drawn from the tail vein of each rat at suitable time intervals and blood glucose levels were measured by a method using glucose oxidase.

[5] = test system: Glucose-administered Rats; test: Inhibitory action against increase of glucose in blood of glucose-administered rats; format: in vivo, Male Sprague Dawley rats; conditions: with 2 g/kg glucose; for Blood Glucose Concentration: 5 rats
Procedure: Male Sprague Dawley rats with body weights ranging from 150 to 200 grams were fasted overnight, and then 2 g/kg of glucose was administered orally by using a stomach tube. The compound of this invention was also administered simultaneously in an amount of 10 to 100 mg/kg, and blood was drawn from the tail vein of each rat at suitable time intervals, and blood glucose levels were measured according to a method using glucose oxidase (Blood Sugar Test, TC-M-III, Boehringer Mannheim A.G.).

[6] = test system: Starch-Administered Rats; test: Inhibitory action against increase of blood glucose for starch-administered rats; format: in vivo, Male Sprague Dawley rats; conditions: with 1 g/kg starch; for Blood Glucose Concentration: 5 rats
Procedure: Male Sprague Dawley rats with body weight of 150 to 200 grams were fasted overnight, and 1 g/kg of starch was administered orally by using a stomach tube. The compound of this invention was simultaneously administered at the dose of 10 to 100 mg/kg, and blood was drawn from the tail vein of each rat and blood glucose levels were examined by a method using glucose oxidase.

[7] = Acute toxicity (LD50) in mice; format: in vivo; conditions: mouse, in vivo
[8] = test system: mice; test: Acute toxicity (LD50) in mice; format: in vivo
[9] = test system: lipid biosynthesis; test: Ability to inhibit lipid biosynthesis
[10] = 10 mg/kg oral, 0 min after administration
[11] = 10 mg/kg oral, 15 min after administration
[12] = 10 mg/kg oral, 30 min after administration
[13] = 10 mg/kg oral, 60 min after administration
[14] = 100 mg/kg oral, 0 min after administration
[15] = 100 mg/kg oral, 15 min after administration
[16] = 100 mg/kg oral, 30 min after administration
[17] = 100 mg/kg oral, 60 min after administration

Compound: OC[C@H]1NC[C@H](O)[C@@H](O)[C@@H]1O [compound of this invention, 2(R),3(R),4(R),5(S)-2-hydroxymethyl-3,4,5-trihydroxypiperidine]
- rise of the glucose content in the blood [1]: rise of the glucose content in the blood is inhibited corresponding to the dosage
- rise of the glucose content in the blood [2]: rise of the glucose content in the blood is inhibited
- increase of glucose levels [3]: inhibit or reduce the increase of glucose levels
- Blood Glucose Concentration ([4]; 1 mg/kg oral, 0 min after administration, 5 rats): 69 mg %
- Blood Glucose Concentration ([4]; 1 mg/kg oral, 15 min after administration, 5 rats): 98 mg %
- Blood Glucose Concentration ([4]; 1 mg/kg oral, 30 min after administration, 5 rats): 121 mg %
- Blood Glucose Concentration ([4]; 1 mg/kg oral, 60 min after administration, 5 rats): 127 mg %
- Blood Glucose Concentration ([4]; 10 mg/kg oral, 0 min after administration, 6 rats): 47 mg %
- Blood Glucose Concentration ([4]; 10 mg/kg oral, 15 min after administration, 6 rats): 57 mg %
- Blood Glucose Concentration ([4]; 10 mg/kg oral, 30 min after administration, 6 rats): 52 mg %
- Blood Glucose Concentration ([4]; 10 mg/kg oral, 60 min after administration, 6 rats): 97 mg %
- Increase of glucose in the blood ([4]; 10 mg/kg): totally inhibited
- Blood Glucose Concentration ([4]; 100 mg/kg oral, 0 min after administration, 5 rats): 52 mg %
- Blood Glucose Concentration ([4]; 100 mg/kg oral, 15 min after administration, 5 rats): 66 mg %
- Blood Glucose Concentration ([4]; 100 mg/kg oral, 30 min after administration, 5 rats): 63 mg %
- Blood Glucose Concentration ([4]; 100 mg/kg oral, 60 min after administration, 5 rats): 64 mg %
- Blood Glucose Concentration [5, 10]: 59 mg %
- Blood Glucose Concentration [5, 11]: 100 mg %
- Blood Glucose Concentration [5, 12]: 108 mg %
- Blood Glucose Concentration [5, 13]: 107 mg %
- Blood Glucose Concentration [5, 14]: 52 mg %
- Blood Glucose Concentration [5, 15]: 59 mg %
- Blood Glucose Concentration [5, 16]: 58 mg %
- Blood Glucose Concentration [5, 17]: 63 mg %
- Increase of glucose in the blood ([5]; 100 mg/kg): totally inhibited
- Blood Glucose Concentration [6, 10]: 53 mg %
- Blood Glucose Concentration [6, 11]: 67 mg %
- Blood Glucose Concentration [6, 12]: 80 mg %
- Blood Glucose Concentration [6, 13]: 83 mg %
- Blood Glucose Concentration [6, 14]: 52 mg %
- Blood Glucose Concentration [6, 15]: 57 mg %
- Blood Glucose Concentration [6, 16]: 63 mg %
- Blood Glucose Concentration [6, 17]: 59 mg %
- Increase of glucose in the blood ([6]; 100 mg/kg): totally inhibit increase of glucose in the blood
- LD50 ([7]; intravenous administration): > 800 mg/kg
- LD50 ([7]; oral administration): > 1200 mg/kg
- toxicity [8]: very low
- inhibition of lipid biosynthesis [9]: inhibit lipid biosynthesis
